For assay [1], the system named is adzuki bean section. The experiment in a line: adzuki bean root promotion assay (section immersion treatment, adventitious roots counted). The format is in vivo. As to conditions: for Relative value (%): 0/0 ppm group = 100; for Ratio to untreated group (%): untreated group = 100. Here is the method:
An aqueous solution of DL-phenyllactic acid (Sigma-Aldrich Japan) and L-tryptophan (Wako Pure Chemical Industries, Ltd.) was prepared so that the total concentration of the compounds was 400 ppm and adjusted to pH 7 with hydrochloric acid, and the solution was subjected to an adzuki bean root promotion assay (Itagaki et al. 2003. Biological activities and structure-activity relationship of substitution compounds of N-[2-(3-indolyl)ethyl]succinamic acid and N-[2-(1-naphthyl)ethyl]succinamic acid, derived from a new category of root-promoting substance, N-(phenethyl) succinamic acid analogs. Plant Soil 255: 67-75). The base of an adzuki section was immersed in the test solution for 72 hours, and adventitious roots generated 7 days after immersion were counted. The repetition number was 5.
To study the cooperation effect of phenyllactic acid and aromatic amino acids other than L-tryptophan, each of 1 mM of DL-phenyllactic acid (Sigma-Aldrich Japan), L-tryptophan (Wako Pure Chemical Industries, Ltd.), L-phenylalanine (Wako Pure Chemical Industries, Ltd.), and L-tyrosine (Wako Pure Chemical Industries, Ltd.), and aqueous solutions obtained by adding the amino acids to DL-phenyllactic acid were prepared, and subjected to the adzuki bean root promotion assay in the same way as in Example 1.
To compare effects of combinations of tryptophan enantiomers and phenyllactic acid enantiomers, aqueous solutions of 400 ppm of L-tryptophan, D-tryptophan (Wako Pure Chemical Industries, Ltd.), L-phenyllactic acid (Sigma-Aldrich Japan), and D-phenyllactic acid (Sigma-Aldrich Japan) were prepared. Separately, aqueous solutions of 200 ppm of each of the tryptophan enantiomers and 200 ppm of each of the […] enantiomers were prepared and subjected to the adzuki bean root promotion assay in the same way as in Example 1. […]

Assay [2] relates to adzuki bean section. Described as above. The format is in vivo. As to conditions: for Relative value (%): 0/0 ppm group = 100; for Number of roots: 72 h immersion, counted 7 days after immersion.
In the next assay the test system is plants. The settings on record: background art; cited from earlier work.
[3] abbreviates: Table 4: each component present at 1 mM.
Where [4] appears, read: Table 3: L-tryptophan 0 ppm, DL-phenyllactic acid 20 ppm.
[5] abbreviates: Table 5: single enantiomer 400 ppm.
Setting [6] is: Table 3: L-tryptophan 1200 ppm, DL-phenyllactic acid 0 ppm.

On to `O=C(O)C(O)Cc1ccccc1` (racemic) [DL-phenyllactic acid], for which the “root promoting effect (in words)” value with adzuki bean section [1] (Table 1, only DL-phenyllactic acid) is listed as “slight root promoting effect”. In addition, the “Relative value (%)” value in the assay with adzuki bean section [1] (Table 1: L-tryptophan 0 ppm, DL-phenyllactic acid 400 ppm) worked out at 137%; in the assay with adzuki bean section [1] (Table 2: L-tryptophan 0 ppm, DL-phenyllactic acid 400 ppm) it was 268%; in the assay on adzuki bean section [2] (setting [4]), 107%. Moreover, the Number of roots is 22.4 with adzuki bean section [1] (Table 1: L-tryptophan 0 ppm, DL-phenyllactic acid 400 ppm, 72 h immersion, counted 7 days after immersion); 32.2 in the assay on adzuki bean section [1] (Table 2: L-tryptophan 0 ppm, DL-phenyllactic acid 400 ppm, 72 h immersion, counted 7 days after immersion); 18.8 in the assay on adzuki bean section [1] (setting [3]); 11.6 in the assay on adzuki bean section [2] (setting [4]). Also, the “Ratio to group treated with only DL-phenyllactic acid (%)” value in the assay on adzuki bean section [1] (Table 4: each component present at 1 mM, 1 mM DL-phenyllactic acid only = 100) stood at 100%. In the assay on adzuki bean section [1] (setting [3]), the “Ratio to untreated group (%)” value was 132%.

As for `O=C(O)[C@@H](O)Cc1ccccc1` [D-phenyllactic acid], in the assay on adzuki bean section [1] (setting [5]), the Number of roots came to 27.6 and the “Relative value (%)” value is 192%.

`N[C@H](Cc1c[nH]c2ccccc12)C(=O)O` [D-tryptophan]: in the assay with adzuki bean section [1] (setting [5]), the Number of roots is on record as 24.2 and the “Relative value (%)” value is reported as 168%.

Take `N[C@@H](Cc1ccccc1)C(=O)O` [L-phenylalanine]: in the assay with adzuki bean section [1] (setting [3]), the Number of roots amounted to 16.6 and the “Ratio to untreated group (%)” value was determined as 117%.

Take `O=C(O)[C@@H](O)Cc1ccccc1` [L-phenyllactic acid]: in the assay on adzuki bean section [1] (setting [5]), the Number of roots was found to be 19.4 and the “Relative value (%)” value came out at 135%.

For the compound `N[C@@H](Cc1c[nH]c2ccccc12)C(=O)O` [L-tryptophan], the “Relative value (%)” value in the assay with adzuki bean section [1] (Table 1: L-tryptophan 400 ppm, DL-phenyllactic acid 0 ppm) turned out to be 113%; with adzuki bean section [1] (Table 3: L-tryptophan 400 ppm, DL-phenyllactic acid 0 ppm) it was 98%; with adzuki bean section [1] (setting [5]), 154%; in the assay on adzuki bean section [2] (setting [6]), 139%. Also, the Number of roots in the assay on adzuki bean section [1] (Table 1: L-tryptophan 400 ppm, DL-phenyllactic acid 0 ppm, 72 h immersion, counted 7 days after immersion) worked out at 18.6; in the assay on adzuki bean section [1] (Table 3: L-tryptophan 400 ppm, DL-phenyllactic acid 0 ppm, 72 h immersion, counted 7 days after immersion) it was 10.6; in the assay with adzuki bean section [1] (setting [3]) it was 19.2; with adzuki bean section [1] (setting [5]), 22.2; with adzuki bean section [2] (setting [6]), 15.0. The “Ratio to untreated group (%)” value with adzuki bean section [1] (setting [3]) is on record as 135%.

As to `N[C@@H](Cc1ccc(O)cc1)C(=O)O` [L-tyrosine], in the assay with adzuki bean section [1] (setting [3]), the Number of roots stood at 13.6 and the “Ratio to untreated group (%)” value is on record as 96%.

For `O=C(O)C(O)Cc1ccccc1` (stereo not shown) [phenyllactic acid, 3-phenyllactic acid], in the assay on plants, the “root promoting effect on plants (in words)” value is listed as “the effect is weak”.

The record behind these values is patent publication US8242054B2, “Plant growth regulator composition” (Snow Brand Seed Co., Ltd., priority 2008, dated 2012).
